In the NIST ThermoML archive (doi:10.1021/je900387e):

Assay: xn = mol fraction of the nth substance listed
Settings: Liquid, Pycnometric method

CCCCCl [1-chlorobutane] + O=C=O
Settings	mass density [kg/m3]
327.6 K, 14940 kPa, x1 = 0.0981	822
327.6 K, 15140 kPa, x1 = 0.0981	825
332.4 K, 9070 kPa, x1 = 0.1488	732
332.4 K, 9260 kPa, x1 = 0.1488	737
332.4 K, 9420 kPa, x1 = 0.1488	740
332.4 K, 9430 kPa, x1 = 0.0981	649
332.4 K, 9510 kPa, x1 = 0.0981	654
332.4 K, 9560 kPa, x1 = 0.0981	657
332.4 K, 9590 kPa, x1 = 0.1488	744
332.4 K, 9660 kPa, x1 = 0.0981	663
332.4 K, 9750 kPa, x1 = 0.0483	421
332.4 K, 9760 kPa, x1 = 0.0981	669
332.4 K, 9760 kPa, x1 = 0.1488	748
332.4 K, 9800 kPa, x1 = 0.0483	426
332.4 K, 9860 kPa, x1 = 0.0483	433
332.4 K, 9870 kPa, x1 = 0.0981	675
332.4 K, 9910 kPa, x1 = 0.0483	441
332.4 K, 9940 kPa, x1 = 0.1488	751
332.4 K, 9970 kPa, x1 = 0.0483	449
332.4 K, 10000 kPa, x1 = 0.0981	682
332.4 K, 10050 kPa, x1 = 0.0483	458
332.4 K, 10130 kPa, x1 = 0.0981	687
332.4 K, 10130 kPa, x1 = 0.1488	755
332.4 K, 10150 kPa, x1 = 0.0483	469
332.4 K, 10200 kPa, x1 = 0.0483	478
332.4 K, 10280 kPa, x1 = 0.0483	487
332.4 K, 10290 kPa, x1 = 0.0981	694
332.4 K, 10340 kPa, x1 = 0.1488	758
332.4 K, 10390 kPa, x1 = 0.0483	497
332.4 K, 10470 kPa, x1 = 0.0981	700
332.4 K, 10490 kPa, x1 = 0.0483	507
332.4 K, 10570 kPa, x1 = 0.1488	762
332.4 K, 10590 kPa, x1 = 0.0483	518
332.4 K, 10650 kPa, x1 = 0.0981	707
332.4 K, 10700 kPa, x1 = 0.0483	529
332.4 K, 10800 kPa, x1 = 0.1488	766
332.4 K, 10830 kPa, x1 = 0.0483	541
332.4 K, 10850 kPa, x1 = 0.0981	713
332.4 K, 10970 kPa, x1 = 0.0483	554
332.4 K, 11030 kPa, x1 = 0.1488	770
332.4 K, 11080 kPa, x1 = 0.0981	720
332.4 K, 11140 kPa, x1 = 0.0483	569
332.4 K, 11280 kPa, x1 = 0.1488	774
332.4 K, 11330 kPa, x1 = 0.0981	727
332.4 K, 11350 kPa, x1 = 0.0483	584
332.4 K, 11560 kPa, x1 = 0.0483	598
332.4 K, 11570 kPa, x1 = 0.1488	778
332.4 K, 11590 kPa, x1 = 0.0981	734
332.4 K, 11830 kPa, x1 = 0.0483	613
332.4 K, 11840 kPa, x1 = 0.1488	782
332.4 K, 11980 kPa, x1 = 0.0981	743
332.4 K, 12120 kPa, x1 = 0.0483	629
332.4 K, 12300 kPa, x1 = 0.0483	637
332.4 K, 12330 kPa, x1 = 0.1488	788
332.4 K, 12430 kPa, x1 = 0.0981	753
332.4 K, 12530 kPa, x1 = 0.0483	648
332.4 K, 12610 kPa, x1 = 0.0483	652
332.4 K, 12820 kPa, x1 = 0.1488	794
332.4 K, 12960 kPa, x1 = 0.0981	763
332.4 K, 13360 kPa, x1 = 0.1488	800
332.4 K, 13540 kPa, x1 = 0.0981	774
332.4 K, 13940 kPa, x1 = 0.1488	806
332.4 K, 14190 kPa, x1 = 0.0981	785
332.4 K, 14570 kPa, x1 = 0.1488	813
332.4 K, 14840 kPa, x1 = 0.1488	816
332.4 K, 14900 kPa, x1 = 0.0981	795
332.4 K, 15110 kPa, x1 = 0.0981	798
333.3 K, 9630 kPa, x1 = 0.0744	545
333.3 K, 9660 kPa, x1 = 0.0744	551
333.3 K, 9690 kPa, x1 = 0.0744	556
333.3 K, 9740 kPa, x1 = 0.0744	563
333.3 K, 9810 kPa, x1 = 0.0744	571
333.3 K, 9900 kPa, x1 = 0.0744	578
333.3 K, 9980 kPa, x1 = 0.0744	586
333.3 K, 10100 kPa, x1 = 0.0744	597
333.3 K, 10250 kPa, x1 = 0.0744	608
333.3 K, 10410 kPa, x1 = 0.0744	620
333.3 K, 10600 kPa, x1 = 0.0744	632
333.3 K, 10840 kPa, x1 = 0.0744	645
333.3 K, 11110 kPa, x1 = 0.0744	658
333.3 K, 11420 kPa, x1 = 0.0744	672
333.3 K, 11800 kPa, x1 = 0.0744	686
333.3 K, 12260 kPa, x1 = 0.0744	701
333.3 K, 12810 kPa, x1 = 0.0744	717
333.3 K, 13470 kPa, x1 = 0.0744	733
333.3 K, 14290 kPa, x1 = 0.0744	750
333.3 K, 14750 kPa, x1 = 0.0744	759
333.3 K, 15240 kPa, x1 = 0.0744	768
337.4 K, 9620 kPa, x1 = 0.1488	705
337.4 K, 9770 kPa, x1 = 0.1488	709
337.4 K, 9890 kPa, x1 = 0.0981	605
337.4 K, 9930 kPa, x1 = 0.0744	509
337.4 K, 9950 kPa, x1 = 0.1488	714
337.4 K, 9960 kPa, x1 = 0.0483	378
337.4 K, 9960 kPa, x1 = 0.0744	513
337.4 K, 9980 kPa, x1 = 0.0981	612
337.4 K, 10010 kPa, x1 = 0.0744	520
337.4 K, 10040 kPa, x1 = 0.0483	384
337.4 K, 10070 kPa, x1 = 0.0981	619
337.4 K, 10080 kPa, x1 = 0.0744	527
337.4 K, 10090 kPa, x1 = 0.0483	390
337.4 K, 10150 kPa, x1 = 0.0981	625
337.4 K, 10150 kPa, x1 = 0.1488	719
337.4 K, 10160 kPa, x1 = 0.0483	396
337.4 K, 10180 kPa, x1 = 0.0744	536
337.4 K, 10230 kPa, x1 = 0.0483	402
337.4 K, 10250 kPa, x1 = 0.0981	632
337.4 K, 10280 kPa, x1 = 0.0744	547
337.4 K, 10290 kPa, x1 = 0.0483	409
337.4 K, 10360 kPa, x1 = 0.0483	415
337.4 K, 10360 kPa, x1 = 0.0981	639
337.4 K, 10360 kPa, x1 = 0.1488	724
337.4 K, 10420 kPa, x1 = 0.0483	422
337.4 K, 10420 kPa, x1 = 0.0744	560
337.4 K, 10490 kPa, x1 = 0.0483	429
337.4 K, 10500 kPa, x1 = 0.0981	647
337.4 K, 10550 kPa, x1 = 0.0744	571
337.4 K, 10570 kPa, x1 = 0.0483	436
337.4 K, 10580 kPa, x1 = 0.1488	729
337.4 K, 10630 kPa, x1 = 0.0981	654
337.4 K, 10650 kPa, x1 = 0.0483	444
337.4 K, 10700 kPa, x1 = 0.0744	583
337.4 K, 10730 kPa, x1 = 0.0483	452
337.4 K, 10790 kPa, x1 = 0.0981	662
337.4 K, 10820 kPa, x1 = 0.0483	459
337.4 K, 10840 kPa, x1 = 0.1488	735
337.4 K, 10870 kPa, x1 = 0.0744	595
337.4 K, 10900 kPa, x1 = 0.0483	468
337.4 K, 10960 kPa, x1 = 0.0981	670
337.4 K, 10990 kPa, x1 = 0.0483	477
337.4 K, 11060 kPa, x1 = 0.0744	607
337.4 K, 11090 kPa, x1 = 0.0483	485
337.4 K, 11090 kPa, x1 = 0.1488	740
337.4 K, 11170 kPa, x1 = 0.0981	678
337.4 K, 11190 kPa, x1 = 0.0483	495
337.4 K, 11270 kPa, x1 = 0.0483	501
337.4 K, 11270 kPa, x1 = 0.0744	620
337.4 K, 11340 kPa, x1 = 0.0483	508
337.4 K, 11380 kPa, x1 = 0.0981	686
337.4 K, 11380 kPa, x1 = 0.1488	746
337.4 K, 11440 kPa, x1 = 0.0483	516
337.4 K, 11510 kPa, x1 = 0.0483	521
337.4 K, 11520 kPa, x1 = 0.0744	634
337.4 K, 11640 kPa, x1 = 0.0981	694
337.4 K, 11680 kPa, x1 = 0.1488	751
337.4 K, 11830 kPa, x1 = 0.0744	648
337.4 K, 11930 kPa, x1 = 0.0981	703
337.4 K, 12030 kPa, x1 = 0.1488	757
337.4 K, 12200 kPa, x1 = 0.0744	663
337.4 K, 12240 kPa, x1 = 0.0981	711
337.4 K, 12380 kPa, x1 = 0.1488	762
337.4 K, 12580 kPa, x1 = 0.0981	721
337.4 K, 12630 kPa, x1 = 0.0744	679
337.4 K, 12750 kPa, x1 = 0.1488	768
337.4 K, 12950 kPa, x1 = 0.0981	729
337.4 K, 13160 kPa, x1 = 0.0744	695
337.4 K, 13180 kPa, x1 = 0.1488	774
337.4 K, 13380 kPa, x1 = 0.0981	739
337.4 K, 13450 kPa, x1 = 0.1488	778
337.4 K, 13780 kPa, x1 = 0.1488	781
337.4 K, 13800 kPa, x1 = 0.0744	713
337.4 K, 14110 kPa, x1 = 0.0981	753
337.4 K, 14120 kPa, x1 = 0.1488	786
337.4 K, 14480 kPa, x1 = 0.1488	790
337.4 K, 14580 kPa, x1 = 0.0744	731
337.4 K, 14830 kPa, x1 = 0.1488	794
337.4 K, 14970 kPa, x1 = 0.0981	768
337.4 K, 15140 kPa, x1 = 0.0744	742
337.4 K, 15300 kPa, x1 = 0.0981	774
